The results in this text go back to patent US11298363B2, “Triazolobenzazepines as vasopressin V1a receptor antagonists” (RICHTER GEDEON NYRT., priority 2017, dated 2022).

In general, IC50 refers to the concentration that inhibits the measured activity by half. As a reminder, the Ki is a measure of affinity in units of concentration, obtained from inhibition or displacement.

Assay [1] has as its target T1, human vasopressin V1a receptor (Homo sapiens, UniProt P37288). Briefly: Functional assay on human vasopressin V1a receptor expressing cell line (intracellular Ca2+ fluorescence). It is filed as cell-based. The note with it: 1321N1 cells, (Arg8)-vasopressin at EC80; read-out: IC50 (nM) on hV1a cell line.
The target in the next assay is mouse V1a receptor (Mus musculus, UniProt Q62463). As to the kind of experiment: Functional V1a in vivo test: inhibition of oxytocin-induced scratching behaviour. The note with it: mice, 10 mg/kg p.o. pretreatment. The method, then:
Functional V1a In Vivo Test
Male mice (NMRI, ToxiCoop) weighing 18-40 g were used. Animals were kept at least 5 days after delivery, during housing and measurements they were fed and drink ad libitum. The experiments were permitted by the Local Animal Protection Committee and carried out in accordance with the European Animal Protection Directives (EU Directive 2010/63/EU).
Animal behaviour was measured by an automated behavioral analysis system (LABORAS™). The sensors located below platforms detect the mechanical vibration generated by the movement of animal, and transform into an electrical signal (Quinn et al., J Neurosci Methods 2003, 130:83-92). After analyzing signals, the system analyzes the time spent with the following behavioral parameters: locomotion, immobility, climbing, grooming. The grooming algorithm by definition is able to measure the scratching behavioral response. During the experiment, mice were pretreated with the test substance or vehicle, and after the pretreatment period scratching-inducing compound (s.c. 0.3 mg/kg oxytocin) was administered, and then the animals were individually placed into measuring cages. […] To reduce the exploratory activity, the animals were measured after a 1-hour habituation to the cage. The behavioural parameters were compared to the parallel measured parameters of the control animals.
The behavioural inhibitory effect of the substances was calculated with average values of parallel measured vehicle treated groups and presented as the percentage of inhibition: 0% was expressed as average value of scratching behaviour of vehicle pretreated animals (and phys. saline s.c. pretreated with vehicle), while 100% was expressed as average value of scratching of vehicle pretreated animals that received oxytocin subcutaneously. For statistical analysis one-way analysis of variance (ANOVA) with Tukey post hoc test were used.

In assay [2] the target is T1, human vasopressin V1a receptor. As to the kind of experiment: Human vasopressin V1a receptor binding assay. The note with it: 1321N1 cell membranes, [3H]vasopressin; read-out: Ki (nM) on hV1a cell line. In short, it runs like this:
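Ki values come from IC50 via Cheng-Prusoff (KD from prior Scatchard), averaged over at least two independent runs. Human V1a membranes were incubated with radioligand 60 minutes at 27° C., bound ligand collected by filtration; (Arg^8)-vasopressin at 1.2×10^−6 M defined non-specific binding.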

T1 sequence (P37288 whole entry): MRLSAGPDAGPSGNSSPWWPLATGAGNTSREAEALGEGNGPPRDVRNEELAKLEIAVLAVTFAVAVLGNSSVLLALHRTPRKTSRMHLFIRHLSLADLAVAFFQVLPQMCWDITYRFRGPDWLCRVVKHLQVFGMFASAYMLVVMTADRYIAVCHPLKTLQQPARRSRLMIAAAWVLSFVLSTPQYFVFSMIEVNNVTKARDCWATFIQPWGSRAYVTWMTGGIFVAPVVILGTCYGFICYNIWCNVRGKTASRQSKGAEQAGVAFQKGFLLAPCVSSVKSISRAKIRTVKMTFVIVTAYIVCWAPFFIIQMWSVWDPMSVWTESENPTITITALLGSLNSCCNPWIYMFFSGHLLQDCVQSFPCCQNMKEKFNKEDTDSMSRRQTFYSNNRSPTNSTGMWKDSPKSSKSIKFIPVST
mouse V1a receptor, sequence (Q62463 whole entry): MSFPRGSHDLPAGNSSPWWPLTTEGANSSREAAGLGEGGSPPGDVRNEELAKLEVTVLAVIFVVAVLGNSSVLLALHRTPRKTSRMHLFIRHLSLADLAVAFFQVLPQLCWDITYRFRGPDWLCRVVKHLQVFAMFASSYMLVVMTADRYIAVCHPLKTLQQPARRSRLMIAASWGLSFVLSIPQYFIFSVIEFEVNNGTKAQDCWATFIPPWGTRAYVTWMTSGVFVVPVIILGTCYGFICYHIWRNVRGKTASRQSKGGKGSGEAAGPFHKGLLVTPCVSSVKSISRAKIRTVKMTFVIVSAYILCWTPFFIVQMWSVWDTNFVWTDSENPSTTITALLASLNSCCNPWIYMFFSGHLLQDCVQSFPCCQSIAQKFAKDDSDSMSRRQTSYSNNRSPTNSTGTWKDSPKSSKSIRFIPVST

Take `Clc1ccc2c(c1)CC1(Cc3nnc([C@H]4CC[C@H](Oc5ccccn5)CC4)n3-2)OCCCO1` [Example 88, 8′-chloro-1′-[trans-4-(pyridin-2-yloxy)cyclohexyl]-4′H,6′H-spiro[1,3-dioxane-2,5′-[1,2,4]triazolo[4,3-a][1]benzazepine]]: the IC50 in assay [1] came to 0.9 nM. Moreover, the “inhibition (%) of oxytocin-induced scratching behaviour response” value (from here on “inhibition (%)”) on mouse V1a receptor turned out to be 79%. The Ki in assay [2] came to 0.3 nM.
In the same order, the values of `CCN[C@@H]1Cc2cc(Cl)ccc2-n2c(nnc2[C@H]2CC[C@H](Oc3ccccn3)CC2)C1` [Example 99, (5R)-8-chloro-N-ethyl-1-[trans-4-(pyridin-2-yloxy)cyclohexyl]-5,6-dihydro-4H-[1,2,4]triazolo[4,3-a][1]benzazepin-5-amine] are 2.5 nM, 60% and 0.3 nM.
On the same counts, the results for `CO[C@]1(C)CC[C@H](c2nnc3n2-c2ccc(Cl)cc2CC2(C3)OCCCO2)CC1` [Example 205, 8′-chloro-1′-(cis-4-methoxy-4-methylcyclohexyl)-4′,6′H-spiro[1,3-dioxane-2,5′-[1,2,4]triazolo[4,3-a][1]benzazepine]] are 2.7 nM, 66% and 0.2 nM.
On the same counts, the results for `CCNC1Cc2cc(Cl)ccc2-n2c(nnc2[C@H]2CC[C@H](Oc3ccccn3)CC2)C1` (stereo partly drawn) [Example 23, 8-chloro-N-ethyl-1-[trans-4-(pyridin-2-yloxy)cyclohexyl]-5,6-dihydro-4H-[1,2,4]triazolo[4,3-a][1]benzazepine-5-amine] are 6.4 nM, 75% and 1 nM.
In the case of `FC(F)(F)[C@H]1CC[C@H](c2nnc3n2-c2ccc(Cl)cc2CC2(C3)OCCO2)CC1` [Example 61, 8′-chloro-1′-[trans-4-(trifluoromethyl)cyclohexyl]-4′H,6′H-spiro[1,3-dioxolane-2,5′-[1,2,4]triazolo[4,3-a][1]benzazepine]], the 50% inhibitory concentration (IC50) in assay [1] worked out at 2.5 nM. The “inhibition (%)” value at mouse V1a receptor was 41%. Besides, in assay [2], the Ki was found to be 0.4 nM.
Turning to `CN(C)[C@@H]1Cc2cc(Cl)ccc2-n2c(nnc2[C@H]2CC[C@H](Oc3ccccn3)CC2)C1` [Example 101, (5R)-8-chloro-N,N-dimethyl-1-[trans-4-(pyridin-2-yloxy)cyclohexyl]-5,6-dihydro-4H-[1,2,4]triazolo[4,3-a][1]benzazepin-5-amine], the half-maximal inhibitory concentration (IC50) in assay [1] turned out to be 1.3 nM. Also, the “inhibition (%)” value at mouse V1a receptor is listed as 105%. Besides, the inhibition constant (Ki) in assay [2] came to 0.2 nM.
In the same order, the values of `O[C@H]1Cc2cc(Cl)ccc2-n2c(nnc2[C@H]2CC[C@H](Oc3ccccn3)CC2)C1` [Example 56, (5S)-8-chloro-1-[trans-4-(pyridin-2-yloxy)cyclohexyl]-5,6-dihydro-4H-[1,2,4]triazolo[4,3-a][1]benzazepin-5-ol] are 1.2 nM, 92% and 0.3 nM.
In the same order, the values of `Fc1ccc2c(c1)CC1(Cc3nnc([C@H]4CC[C@H](Oc5ccccn5)CC4)n3-2)OCCO1` [Example 96, 8′-fluoro-1′-[trans-4-(pyridin-2-yloxy)cyclohexyl]-4′H,6′H-spiro[1,3-dioxolane-2,5′-[1,2,4]triazolo[4,3-a][1]benzazepine]] are 0.8 nM, 49% and 0.2 nM.
On the same counts, the results for `O=C(N[C@@H]1Cc2cc(Cl)ccc2-n2c(nnc2[C@H]2CC[C@H](Oc3ccccn3)CC2)C1)C1CC1` [Example 126, N-{(5R)-8-chloro-1-[trans-4-(pyridin-2-yloxy)cyclohexyl]-5,6-dihydro-4H-[1,2,4]triazolo[4,3-a][1]benzazepin-5-yl}cyclopropanecarboxamide] are 1.8 nM, 43% and 0.6 nM.
`CO[C@H]1Cc2cc(F)ccc2-n2c(nnc2[C@H]2CC[C@H](Oc3ccccn3)CC2)C1` (single isomer, unassigned) [Example 177]: the IC50 in assay [1] was 0.9 nM. In addition, in assay [2], the Ki worked out at 0.3 nM.
On the same counts, the results for `CC(C)CN[C@H]1Cc2cc(Cl)ccc2-n2c(nnc2[C@H]2CC[C@H](Oc3ccccn3)CC2)C1` [Example 161, (5S)-8-chloro-N-(2-methylpropyl-1-[trans-4-pyridin-2-yloxy)cyclohexyl]-5,6-dihydro-4H-[1,2,4]triazolo[4,3-a][1]benzazepin-5-amine] are 34 nM and 1.8 nM.
On to `CCC[C@]1(OC)CC[C@@H](c2nnc3n2-c2ccc(Cl)cc2CC2(C3)OCCO2)CC1` [Example 243, 8′-chloro-1′-(cis-4-methoxy-4-propylcyclohexyl)-4′H,6′H-spiro[1,3-dioxolane-2,5-[1,2,4]triazolo[4,3-a][1]benzazepine]], for which the IC50 in assay [1] was 2.8 nM. The inhibition constant (Ki) in assay [2] amounted to 0.4 nM.
For the compound `CN(C)C1Cc2ccccc2-n2c(nnc2[C@H]2CC[C@H](Oc3ccccn3)CC2)C1` (stereo partly shown) [Example 148], the half-inhibitory concentration (IC50) in assay [1] was 26 nM. In assay [2], the Ki stood at 1.2 nM.
On the same counts, the results for `CO[C@]1(C(F)(F)F)CC[C@H](c2nnc3n2-c2ccc(Cl)cc2CC2(C3)OCCO2)CC1` [Example 236, 8′-chloro-1′-[cis-4-methoxy-4-(trifluoromethyl)cyclohexyl]-4′H,6′H-spiro[1,3-dioxolane-2,5′-[1,2,4]triazolo[4,3-a][1]benzazepine]] are 4.2 nM and 0.9 nM.
On the same counts, the results for `OC1Cc2cc(C(F)(F)F)ccc2-n2c(nnc2[C@H]2CC[C@H](Oc3ccccn3)CC2)C1` (stereo partly drawn) [Example 49, 1-[trans-4-(pyridin-2-yloxy)cyclohexyl]-8-(trifluoromethyl)-5,6-dihydro-4H-[1,2,4]triazolo[4,3-a][1]benzazepin-5-ol] are 140 nM and 7.5 nM.
In the same order, the values of `COC1Cc2cc(Cl)ccc2-n2c(nnc2N2CCN(c3ncccc3Cl)CC2)C1` (stereo not shown) [Example 192, 8-chloro-1-[4-(3-chloropyridin-2-yl)piperazin-1-yl]-5-methoxy-5,6-dihydro-4H-[1,2,4]triazolo[4,3-a][1]benzazepine] are 6.3 nM and 0.8 nM.
Consider `Clc1ccc2c(c1)C[C@H](NCC1CC1)Cc1nnc([C@H]3CC[C@H](Oc4ccccn4)CC3)n1-2` [Example 199], for which the IC50 in assay [1] was 23 nM. In addition, the Ki in assay [2] came out at 2.2 nM.
In the case of `Fc1ccc(CN[C@H]2Cc3cc(Cl)ccc3-n3c(nnc3[C@H]3CC[C@H](Oc4ccccn4)CC3)C2)cc1` [Example 83, (S-8-chloro-N-4-fluorobenzyl)-1-[trans-4-pyridin-2-loxcyclohexyl]-5,6-dihydro-4H-[1,2,4]triazolo[4,3-a][1]benzazepine-5-amine], the IC50 in assay [1] was found to be 44 nM. Besides, in assay [2], the Ki was 4.4 nM.
On the same counts, the results for `CC(=O)NC1Cc2cc(Cl)ccc2-n2c(nnc2C2CCN(c3ccccn3)CC2)C1` (stereo not shown) [Example 3, N-[8-chloro-[1-(pyridin-2-yl)piperidin-4-yl]-5,6-dihydro-4H-[1,2,4]triazolo[4,3-a][1]benzazepin-5-yl]acetamide] are 16 nM and 2.1 nM.
`CC(C)(C)CN[C@H]1Cc2cc(Cl)ccc2-n2c(nnc2[C@H]2CC[C@H](Oc3ccccn3)CC2)C1` [Example 165, (5S)-8-chloro-N-(2,2-dimethylpropyl)-1-[trans-4-(pyridin-2-yloxy)cyclohexyl]-5,6-dihydro-4H-[1,2,4]triazolo[4,3-a][1]benzazepin-5-amine]: the IC50 in assay [1] was found to be 21 nM. For the same compound, the inhibition constant Ki in assay [2] worked out at 1.5 nM.
In the same order, the values of `N#Cc1ccc2c(c1)CC1(Cc3nnc([C@H]4CC[C@H](C(=O)N5CCCCC5)CC4)n3-2)OCCO1` [Example 90, 1′-[trans-4-(piperidin-1-ylcarbonyl)cyclohexyl]-4′H,6′H-spiro[1,3-dioxolane-2,5′-[1,2,4]triazolo[4,3-a][1]benzazepin]-8′-carbonitrile] are 152 nM and 10.2 nM.
In the same order, the values of `O=C1Cc2cc(F)ccc2-n2c(nnc2[C@H]2CC[C@H](Oc3ccccn3)CC2)C1` [Example 110, 8-fluoro-1-[trans-4-(pyridin-2-yloxy)cyclohexyl]-4H-[1,2,4]triazolo[4,3-a][1]benzazepin-5(6H)-one] are 8.3 nM and 2.1 nM.
In the same order, the values of `COCCOC1Cc2cc(Cl)ccc2-n2c(nnc2[C@H]2CC[C@H](Oc3ccccn3)CC2)C1` (stereo partly drawn) [Example 202, 8-chloro-5-(2-methoxyethoxy)-1-[trans-4-(pyridin-2-yloxy)cyclohexyl]-5,6-dihydro-4H-[1,2,4]triazolo[4,3-a][1]benzazepine] are 1 nM and 0.4 nM.
